Assay results taken from ChEMBL document CHEMBL1147618, “Crucial amides for dimerization inhibitors of HIV-1 protease” (Bioorg Med Chem Lett, 2004).

Key:
[1] = target: Human immunodeficiency virus type 1 protease (Human immunodeficiency virus 1, UniProt Q72874); test: Inhibitory concentration against Protease
[2] = target: Human immunodeficiency virus type 1 protease (Human immunodeficiency virus 1) (UniProt Q72874); test: Relative loss of potency of compound in inhibiting Protease was determined

## CC(C)C[C@H](NC(=O)[C@@H](NC(=O)CCCCCCCCCCCCCCC(=O)N[C@@H](C(N)=O)C(=O)N(C)[C@H](Cc1ccccc1)C(=O)O)[C@H](C)O)C(=O)N[C@@H](Cc1ccccc1)C(N)=O
[1]
  IC50: 9.6 µM
[2]
  Relative loss of potency: 1.6

## CC(C)C[C@H](NC(=O)[C@@H](NC(=O)CCCCCCCCCCCCCCC(=O)N(C)[C@@H](C(N)=O)C(=O)N[C@H](Cc1ccccc1)C(=O)O)[C@H](C)O)C(=O)N[C@@H](Cc1ccccc1)C(N)=O
[1]
  IC50: 4.5 µM

## CC(C)C[C@H](NC(=O)[C@@H](NC(=O)CCCCCCCCCCCCCCC(=O)N[C@@H](C(N)=O)C(=O)N[C@H](Cc1ccccc1)C(=O)O)[C@H](C)O)C(=O)N[C@@H](Cc1ccccc1)C(N)=O
[1]
  IC50: 5.9 µM
[2]
  Relative loss of potency: 1

## CC(C)C[C@H](NC(=O)[C@H]([C@H](C)O)N(C)C(=O)CCCCCCCCCCCCCCC(=O)N[C@@H](C(N)=O)C(=O)N[C@H](Cc1ccccc1)C(=O)O)C(=O)N[C@@H](Cc1ccccc1)C(N)=O
[1]
  IC50: 8.3 µM
[2]
  Relative loss of potency: 1.4

## CC(C)C[C@H](NC(=O)[C@@H](NC(=O)CCCCCCCCCCCCCCC(=O)N[C@@H](C(N)=O)C(=O)N[C@H](Cc1ccccc1)C(=O)O)[C@H](C)O)C(=O)N(C)[C@@H](Cc1ccccc1)C(N)=O
[1]
  IC50: 13 µM
[2]
  Relative loss of potency: 2.2

## CC(C)C[C@H](NC(=O)[C@@H](NC(=O)CCCCCCCCCCCCCCC(=O)N[C@@H](C(N)=O)C(=O)N(C)[C@H](Cc1ccccc1)C(=O)O)[C@H](C)O)C(=O)NCCc1ccccc1
[1]
  IC50: 5.8 µM

## CC(C)C[C@@H](C(=O)N[C@@H](Cc1ccccc1)C(N)=O)N(C)C(=O)[C@@H](NC(=O)CCCCCCCCCCCCCCC(=O)N[C@@H](C(N)=O)C(=O)N[C@H](Cc1ccccc1)C(=O)O)[C@H](C)O
[1]
  IC50: 8 µM
[2]
  Relative loss of potency: 1.4
